Experiment: Inhibition of human CCR6 expressed in CHO cells assessed as decrease in human CCL20-dependent cell migration incubated for 4 hrs by Diff-Quik staining based assay

| IC50 [nM] | Structure (SMILES) |
| --- | --- |
| 1400 | Cc1ccc(S(=O)(=O)N2CCC(Nc3ccc(C#N)cn3)CC2)cc1 |
| 240 | N#Cc1ccc(NC2CCN(S(=O)(=O)c3ccc(-c4ccccc4)cc3)CC2)nc1 |
